Measured values: article PMC7014271, “Oral Delivery of a Tetrameric Tripeptide Inhibitor of VEGFR1 Suppresses Pathological Choroid Neovascularization” (International Journal of Molecular Sciences, 2020)
Counter-ions that a name gives are not always drawn. Like-named read-outs stand apart in the source and are kept apart here.

Target: T1, VEGF-A/VEGFR1 (recombinant VEGF-A binding to immobilized VEGFR1) (Homo sapiens, UniProt P17948)
T1 construct: purchased R&D Systems
Assay: Competitive ELISA for VEGF-A/VEGFR-1 interaction
Assay type: biochemical
Procedure: The competitive ELISA based assay was performed by coating on 96-well plates a recombinant form of VEGFR-1 (R&D Systems, Minneapolis, MN, USA) at 0.5 µg/mL in PBS, 100 µL/well (the same volume was used for all subsequent steps), 16 h at room temperature. The plate was then blocked for 3 h at RT with 1% bovine serum albumin (BSA). Recombinant form of VEGF-A (R&D Systems) at 5 ng/mL in PBS containing 0.1% BSA, 5 mM EDTA, 0.004% Tween 20 (PBET) and 4% DMSO, was added alone or mixed with peptides at a concentration ranging between 0.04 and 100 µM, and incubated for 1 h at 37 °C followed by 1 h at RT. A biotinylated anti VEGF-A polyclonal antibody (R&D Systems) diluted in PBET at 150 ng/mL, was added to the wells and incubated for 1 h at 37 °C followed by 1 h at RT. […] The reaction was blocked by adding 30 µL/well of 4 N H2SO4 and the absorbance measured at 490 nm on a microplate reader (BenchMark, Biorad, Hercules, CA, USA).

[1] = competitive ELISA, VEGFR-1 coated 0.5 µg/mL, VEGF-A 5 ng/mL, peptides 0.04-100 µM, PBET, 4% DMSO, 1 h 37 °C then 1 h RT, absorbance 490 nm, mean of two independent experiments in triplicate, read-out: IC50 of VEGF-A binding to VEGFR1 (concentration at 50% inhibition)

T1 sequence (P17948 27-687 limits assumed, species assumed): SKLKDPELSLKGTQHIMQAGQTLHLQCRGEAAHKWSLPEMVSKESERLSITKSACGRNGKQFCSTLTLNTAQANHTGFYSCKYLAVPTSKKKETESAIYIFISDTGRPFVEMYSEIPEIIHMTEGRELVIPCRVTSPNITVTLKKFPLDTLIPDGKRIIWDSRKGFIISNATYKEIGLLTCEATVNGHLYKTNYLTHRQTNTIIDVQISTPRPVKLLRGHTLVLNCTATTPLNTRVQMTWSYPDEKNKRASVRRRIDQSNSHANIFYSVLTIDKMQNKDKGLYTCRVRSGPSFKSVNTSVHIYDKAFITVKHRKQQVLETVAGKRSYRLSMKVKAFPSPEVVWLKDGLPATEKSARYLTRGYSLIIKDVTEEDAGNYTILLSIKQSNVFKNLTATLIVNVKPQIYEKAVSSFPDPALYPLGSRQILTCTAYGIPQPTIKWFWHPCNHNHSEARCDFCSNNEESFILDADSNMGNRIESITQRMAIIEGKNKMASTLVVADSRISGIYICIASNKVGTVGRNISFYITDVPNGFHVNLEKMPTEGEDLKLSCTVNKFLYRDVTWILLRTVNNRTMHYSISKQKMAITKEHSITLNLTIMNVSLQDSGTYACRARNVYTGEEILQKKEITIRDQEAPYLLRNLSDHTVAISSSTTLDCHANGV

`N[C@H](CCC(=O)O)C(=O)N[C@@H](CSCc1ccccc1)C(=O)N[C@@H](CC1CCCCC1)C(=O)NCCCC[C@H](NC(=O)[C@H](CC1CCCCC1)NC(=O)[C@H](CSCc1ccccc1)NC(=O)[C@H](N)CCC(=O)O)C(=O)NCCCC[C@H](NC(=O)[C@H](CCCCNC(=O)[C@H](CC1CCCCC1)NC(=O)[C@H](CSCc1ccccc1)NC(=O)[C@H](N)CCC(=O)O)NC(=O)[C@H](CC1CCCCC1)NC(=O)[C@H](CSCc1ccccc1)NC(=O)[C@H](N)CCC(=O)O)C(=O)NCC(=O)O` [iVR1, [D-Glu-L-Cys(Bzl)-L-Cha]4-Lys2-Lys-Gly] was tested, and the IC50 (acetate counter-ion, VEGF-A/VEGFR1, read-out: IC50 of iVR1 after TFA replaced with acetate (rounded, discussion)) was less than 2000 nM.
In the case of `N[C@H](CCC(=O)O)C(=O)N[C@@H](CSCc1ccccc1)C(=O)N[C@@H](CC1CCCCC1)C(=O)NCCCC[C@H](NC(=O)[C@H](CC1CCCCC1)NC(=O)[C@H](CSCc1ccccc1)NC(=O)[C@H](N)CCC(=O)O)C(=O)NCCCC[C@H](NC(=O)[C@H](CCCCNC(=O)[C@H](CC1CCCCC1)NC(=O)[C@H](CSCc1ccccc1)NC(=O)[C@H](N)CCC(=O)O)NC(=O)[C@H](CC1CCCCC1)NC(=O)[C@H](CSCc1ccccc1)NC(=O)[C@H](N)CCC(=O)O)C(=O)NCC(=O)O` [iVR1-Ac, [D-Glu-L-Cys(Bzl)-L-Cha]4-Lys2-Lys-Gly], the IC50 [1] is reported as 1940 nM and the “Increase in inhibitory activity (reduction of IC50) upon TFA to acetate exchange” value (iVR1-Ac vs iVR1-TFA, VEGF-A/VEGFR1 competitive ELISA) is reported as “about five”.
Work on `N[C@H](CCC(=O)O)C(=O)N[C@@H](CSCc1ccccc1)C(=O)N[C@@H](CC1CCCCC1)C(=O)NCCCC[C@H](NC(=O)[C@H](CC1CCCCC1)NC(=O)[C@H](CSCc1ccccc1)NC(=O)[C@H](N)CCC(=O)O)C(=O)NCCCC[C@H](NC(=O)[C@H](CCCCNC(=O)[C@H](CC1CCCCC1)NC(=O)[C@H](CSCc1ccccc1)NC(=O)[C@H](N)CCC(=O)O)NC(=O)[C@H](CC1CCCCC1)NC(=O)[C@H](CSCc1ccccc1)NC(=O)[C@H](N)CCC(=O)O)C(=O)NCC(=O)O` [iVR1-TFA, [D-Glu-L-Cys(Bzl)-L-Cha]4-Lys2-Lys-Gly] yielded an IC50 [1] of 9350 nM.
